According to patent publication US20060046976A1, “Method for increasing the bone mineral density and bone micro-architecture or connectivity of a mammal using N-acylated glucosamines” (priority 2004, published 2006):

Test system: SCW-arthritis rats
Test: Two-dimensional subchondral bone analysis (structure, connectivity/strut analysis, plate thickness) of proximal tibia, SCW-arthritis rats
Assay type: in vivo, Lewis type rats
Conditions: for 2D-Tb.N Mean ± SEM / 2D-Tb.Th % loss / 2D-Tb.Th Mean ± SEM / End Points % loss / End Points Mean ± SEM / Multiple points % loss / Multiple points Mean ± SEM / Node-node struts % loss / Node-node struts Mean ± SEM / Total Strut length % loss / Total Strut length Mean ± SEM / 2D-BV/TV % loss / 2D-BV/TV Mean ± SEM / 2D-Tb.N % loss: SCW + 200 mg

Compound: CCCC(=O)N[C@H]1C(O)O[C@H](CO)[C@@H](O)[C@@H]1O (stereo partly drawn) [GlcNBu, N-butyryl-D-glucosamine]
- 2D-Tb.N Mean ± SEM (Anterior/lateral): 6.0 ± 0.7 /mm
- 2D-Tb.Th % loss (Anterior/lateral): 30%
- 2D-Tb.Th Mean ± SEM (Anterior/lateral): 39.7 ± 2.9 um
- End Points % loss (Anterior/lateral): −120%
- End Points Mean ± SEM (Anterior/lateral): 34.1 ± 4.1 1/mm2
- Multiple points % loss (Anterior/lateral): 37%
- Multiple points Mean ± SEM (Anterior/lateral): 10.3 ± 2.7 1/mm2
- Node-node struts % loss (Anterior/lateral): 64%
- Node-node struts Mean ± SEM (Anterior/lateral): 1.2 ± 0.4 mm/mm2
- Total Strut length % loss (Anterior/lateral): 28%
- Total Strut length Mean ± SEM (Anterior/lateral): 5.4 ± 0.7 mm/mm2
- 2D-BV/TV % loss (Anterior/medial): 31%
- 2D-BV/TV Mean ± SEM (Anterior/medial): 27.8 ± 2.7%
- 2D-Tb.N % loss (Anterior/medial): 10%
- 2D-Tb.N Mean ± SEM (Anterior/medial): 5.7 ± 0.6 /mm
- 2D-Tb.Th % loss (Anterior/medial): 28%
- 2D-Tb.Th Mean ± SEM (Anterior/medial): 49.5 ± 4.3 um
- End Points % loss (Anterior/medial): −99%
- End Points Mean ± SEM (Anterior/medial): 26.7 ± 5.7 1/mm2
- Multiple points % loss (Anterior/medial): 32%
- Multiple points Mean ± SEM (Anterior/medial): 10.7 ± 1.7 1/mm2
- Node-node struts % loss (Anterior/medial): 45%
- Node-node struts Mean ± SEM (Anterior/medial): 1.3 ± 0.3 mm/mm2
- Total Strut length % loss (Anterior/medial): 15%
- Total Strut length Mean ± SEM (Anterior/medial): 5.1 ± 0.5 mm/mm2
- 2D-BV/TV % loss (Middle section/lateral): 15%
- 2D-BV/TV Mean ± SEM (Middle section/lateral): 24.1 ± 2.1%
- 2D-Tb.N % loss (Middle section/lateral): 0%
- 2D-Tb.N Mean ± SEM (Middle section/lateral): 4.7 ± 0.3 /mm
- 2D-Tb.Th % loss (Middle section/lateral): 16%
- 2D-Tb.Th Mean ± SEM (Middle section/lateral): 51.3 ± 2.8 um
- End Points % loss (Middle section/lateral): −92%
- End Points Mean ± SEM (Middle section/lateral): 19.8 ± 1.7 1/mm2
- Multiple points % loss (Middle section/lateral): 2%
- Multiple points Mean ± SEM (Middle section/lateral): 9.5 ± 1.9 1/mm2
- Node-node struts % loss (Middle section/lateral): 15%
- Node-node struts Mean ± SEM (Middle section/lateral): 0.9 ± 0.2 mm/mm2
- Total Strut length % loss (Middle section/lateral): 9%
- Total Strut length Mean ± SEM (Middle section/lateral): 4.2 ± 0.2 mm/mm2
- 2D-BV/TV % loss (Middle section/medial): 17%
- 2D-BV/TV Mean ± SEM (Middle section/medial): 35.1 ± 4.1%
- 2D-Tb.N % loss (Middle section/medial): −9%
- 2D-Tb.N Mean ± SEM (Middle section/medial): 5.1 ± 0.2 /mm
- 2D-Tb.Th % loss (Middle section/medial): 24%
- 2D-Tb.Th Mean ± SEM (Middle section/medial): 68.5 ± 6.3 um
- End Points % loss (Middle section/medial): −145%
- End Points Mean ± SEM (Middle section/medial): 12.2 ± 2.1 1/mm2
- Multiple points % loss (Middle section/medial): −11%
- Multiple points Mean ± SEM (Middle section/medial): 12.6 ± 1.8 1/mm2
- Node-node struts % loss (Middle section/medial): 4%
- Node-node struts Mean ± SEM (Middle section/medial): 2.0 ± 0.3 mm/mm2
- Total Strut length % loss (Middle section/medial): −2%
- Total Strut length Mean ± SEM (Middle section/medial): 4.9 ± 0.3 mm/mm2
- 2D-BV/TV % loss (Posterior/lateral): 27%
- 2D-BV/TV Mean ± SEM (Posterior/lateral): 23.2 ± 1.0%
- 2D-Tb.N % loss (Posterior/lateral): 13%
- 2D-Tb.N Mean ± SEM (Posterior/lateral): 4.5 ± 0.2 /mm
- 2D-Tb.Th % loss (Posterior/lateral): 22%
- 2D-Tb.Th Mean ± SEM (Posterior/lateral): 49.8 ± 1.7 um
- End Points % loss (Posterior/lateral): −114%
- End Points Mean ± SEM (Posterior/lateral): 21.4 ± 1.7 1/mm2
- Multiple points % loss (Posterior/lateral): 59%
- Multiple points Mean ± SEM (Posterior/lateral): 7.1 ± 0.7 1/mm2
- Node-node struts % loss (Posterior/lateral): 46%
- Node-node struts Mean ± SEM (Posterior/lateral): 0.7 ± 0.1 mm/mm2
- Total Strut length % loss (Posterior/lateral): 16%
- Total Strut length Mean ± SEM (Posterior/lateral): 4.0 ± 0.2 mm/mm2
- 2D-BV/TV % loss (Posterior/medial): 21%
- 2D-BV/TV Mean ± SEM (Posterior/medial): 35.9 ± 2.2%
- 2D-Tb.N % loss (Posterior/medial): 5%
- 2D-Tb.N Mean ± SEM (Posterior/medial): 6.1 ± 0.2 /mm
- 2D-Tb.Th % loss (Posterior/medial): 21%
- 2D-Tb.Th Mean ± SEM (Posterior/medial): 61.0 ± 3.6 um
- End Points % loss (Posterior/medial): −233%
- End Points Mean ± SEM (Posterior/medial): 17.1 ± 1.8 1/mm2
- Multiple points % loss (Posterior/medial): 29%
- Multiple points Mean ± SEM (Posterior/medial): 13.9 ± 1.8 1/mm2
- Node-node struts % loss (Posterior/medial): 23%
- Node-node struts Mean ± SEM (Posterior/medial): 2.1 ± 0.3 mm/mm2
- Total Strut length % loss (Posterior/medial): 12%
- Total Strut length Mean ± SEM (Posterior/medial): 5.6 ± 0.3 mm/mm2
- Subchondral Plate Thickness (SCW + GlcNBu High, lateral epiphysis of proximal tibia): 0.11 ± 0.04 mm
- Subchondral Plate Thickness (SCW + GlcNBu High, medial epiphysis of proximal tibia): 0.07 ± 0.04 mm
- Subchondral Plate Thickness (SCW + GlcNBu Low, lateral epiphysis of proximal tibia): 0.10 ± 0.04 mm
- Subchondral Plate Thickness (SCW + GlcNBu Low, medial epiphysis of proximal tibia): 0.07 ± 0.03 mm
- decrease of Subchondral Plate Thickness in arthritis (SCW-arthritis rats, GlcNBu treatment, especially high dose): minimized by GlcNBu treatment
- bone connectivity (SCW-arthritis rats, low and high dose GlcNBu): dose-dependent increase in bone connectivity
- length of node-to-node struts, untreated arthritis-induced group to high dose group (medial side of the proximal epiphysis, high dose, p=0.034): significant increase
